Data taken from patent US5830911A, “Pyranoindole and tetrahydrocarbazole inhibitors of COX-2” (American Home Products Corporation, priority 1997, dated 1998).
Each block holds one molecule with its values, some of them ahead of it.

How the values were obtained:
rhCOX-2 = target: T1, rhCOX-2 (Homo sapiens, UniProt P35354); assay: Inhibition of recombinant human COX-2 (PGH2 converted to PGF2α, EIA); type: biochemical; conditions: for IC50: human recombinant COX-2, 30 min preincubation, 37° C.
T1 construct: made in house; microsomal preparation
T1 sequence (P35354 18-604): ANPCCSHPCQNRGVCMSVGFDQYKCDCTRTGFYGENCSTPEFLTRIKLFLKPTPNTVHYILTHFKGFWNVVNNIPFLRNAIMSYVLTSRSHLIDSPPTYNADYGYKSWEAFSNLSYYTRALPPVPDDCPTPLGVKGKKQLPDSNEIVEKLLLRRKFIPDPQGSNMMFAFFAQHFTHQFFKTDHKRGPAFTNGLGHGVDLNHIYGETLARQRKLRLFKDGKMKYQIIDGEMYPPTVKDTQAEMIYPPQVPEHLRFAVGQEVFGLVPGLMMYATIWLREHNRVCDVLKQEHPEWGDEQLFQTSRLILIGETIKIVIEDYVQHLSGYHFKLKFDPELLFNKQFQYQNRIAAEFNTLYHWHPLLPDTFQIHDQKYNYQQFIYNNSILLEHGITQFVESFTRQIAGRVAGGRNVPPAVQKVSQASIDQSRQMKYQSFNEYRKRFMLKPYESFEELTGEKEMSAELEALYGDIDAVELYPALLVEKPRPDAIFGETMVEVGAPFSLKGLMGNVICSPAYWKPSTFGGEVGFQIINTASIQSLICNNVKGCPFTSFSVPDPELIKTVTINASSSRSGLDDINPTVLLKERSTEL
Experimental: (§1) Representative compounds of this invention were evaluated for inhibition of COX-2 and COX-1 enzymes as follows. Human COX-1 and COX-2 cDNAs were cloned from human monocytes, untreated and LPS-treated respectively, by RT-PCR using oligonucleotide primers based on published hCOX-1 and hCOX-2 sequences (Jones et al., J. Biol. Chem., 268, 9049 (1993)). The cDNAs were then transfected into either Sf9 or CHO cells and subsequently converted into a microsomal preparation as described by Glaser et al (Eur. J. Pharmacol. 281, 107-111 (1995)). The microsomal human recombinant enzymes were diluted with buffer (100 mM Tris, pH 7.8 at 37° C.) containing 0.5 mM phenol ([…] total volume). The enzyme preparations were preincubated with vehicle (DMSO) or compounds in DMSO (1 % DMSO in final assay) for 30 min at 37° C. Excess hematin was added 1 min prior to initiation of reaction (1.25 mM final hematin) with 30 mM arachidonic acid (sodium salt). Final assay volume was 1.0 ml (100 mM Tris (pH 7.8), 0.5 mM phenol, 1.25 mM hematin and 30 mM arachidonic acid at 37° C.).
The reaction was incubated for 35 sec (maximum level of PGH2 accumulation as determined from time course studies), and terminated by addition of […] of SnCl2 (1 mg/ml) in 0.1N HCl. PGH2 is quantitatively converted to PGF2a by this reaction (50% efficiency of total conversion). The pH of each tube is adjusted to pH 3.0-3.5 with 0.1N--NaOH and extracted twice with 1.5 ml of ethyl acetate (75-90% efficiency per extraction). Combined ethyl acetate extracts were dried under N2 (g) and redissolved in EIA buffer (2.0 ml), and PGF2α ( was quantified by EIA.

purified ovine COX-1 = target: T2, purified ovine COX-1 (Ovis aries, UniProt P05979); assay: Inhibition of purified ovine COX-1 (PGH2 converted to PGF2α, EIA); type: biochemical; conditions: for inhibition at 90 µM / inhibition at 30 µM / inhibition at 270 µM / inhibition at 10 µM: read-out: % inh of pur. bovine COX-1
T2 construct: purchased Cayman Chemicals (Ann Arbor, Mich.)
T2 sequence (P05979 25-600): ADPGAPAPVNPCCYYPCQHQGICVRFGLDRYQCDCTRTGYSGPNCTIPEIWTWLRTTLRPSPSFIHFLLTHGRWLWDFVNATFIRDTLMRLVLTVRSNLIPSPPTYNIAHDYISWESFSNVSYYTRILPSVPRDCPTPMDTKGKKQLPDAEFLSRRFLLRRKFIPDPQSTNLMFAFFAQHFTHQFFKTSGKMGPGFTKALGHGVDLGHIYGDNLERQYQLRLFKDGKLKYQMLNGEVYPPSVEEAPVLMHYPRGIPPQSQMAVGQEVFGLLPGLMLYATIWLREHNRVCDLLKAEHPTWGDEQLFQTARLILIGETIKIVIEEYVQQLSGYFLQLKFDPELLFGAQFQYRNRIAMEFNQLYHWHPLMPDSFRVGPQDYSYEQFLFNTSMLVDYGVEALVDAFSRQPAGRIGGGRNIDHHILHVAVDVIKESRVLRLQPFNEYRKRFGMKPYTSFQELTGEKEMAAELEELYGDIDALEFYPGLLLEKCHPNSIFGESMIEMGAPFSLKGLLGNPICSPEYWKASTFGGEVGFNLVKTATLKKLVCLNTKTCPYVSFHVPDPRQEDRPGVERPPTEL
Experimental: [The source words this procedure for another species and reports this species under the same test.] as §1, with “C.). The reaction was incubated for 35 sec (maximum level of PGH2 accumulation as determined from time course studies), and terminated by addition of […] of SnCl2 (1 mg/ml) in 0.1N HCl. PGH2 is quantitatively converted to PGF2a by this reaction (50% efficiency of total conversion). The pH of each tube is adjusted to pH 3.0-3.5 with 0.1N--NaOH and extracted twice with 1.5 ml of ethyl acetate (75-90% efficiency per extraction).” for “C.).”

[1] = Rogers et al., Neurology 43, 1609-1611 (1993); cited from earlier work
COX-2 = conditions: literature; cited from earlier work
[2] = Futaki et al., Gen. Pharmac. 24, 105-110, 1993; cited from earlier work
[3] = Futaki et al., Gen. Pharmac. 24, 105-110, 1993; cited from earlier work; remark: listed apart in the source

IC50 (rhCOX-2): 1 µM
Structure (SMILES): CCCC1(CC(=O)O)OCCc2c1[nH]c1c(F)ccc(C#N)c21 (centres unmarked) [Example 1, 5-Cyano-8-fluoro-1-propyl-1,3,4,9-tetrahydropyrano[3,4-b]indole-1-acetic acid]

inhibition at 3 µM (rhCOX-2; at 3 μM, read-out: % inh of rhCOX-2): 38%
inhibition at 90 µM (purified ovine COX-1): 86%
Structure (SMILES): CCCC1(CC(=O)O)OCCc2c1[nH]c1c(C)ccc(C#N)c21 (centres unmarked) [Example 2, 5-Cyano-8-methyl-1-propyl-1,3,4,9-tetrahydropyrano[3,4-b]indole-1-acetic acid]

IC50 (rhCOX-2): 0.57 µM
inhibition at 30 µM (purified ovine COX-1): 47%
inhibition at 270 µM (purified ovine COX-1): 31%
Structure (SMILES): CCC1(CC(=O)O)OCCc2c1[nH]c1cccc(C#N)c21 (centres unmarked) [Example 3, 5-Cyano-1-ethyl-1,3,4,9-tetrahydropyrano[3,4-b]indole-1-acetic acid]

IC50 (rhCOX-2): 1.7 µM
IC50 (purified ovine COX-1; purified ovine COX-1, 30 min preincubation, 37° C.): > 1000 µM
Structure (SMILES): CCCC1(CC(=O)O)OCCc2c1[nH]c1cccc(C#N)c21 (centres unmarked) [Example 4, 5-Cyano-1-propyl-1,3,4,9-tetrahydropyrano[3,4-b]indole-1-acetic acid]

IC50 (rhCOX-2): 0.1 µM
inhibition at 10 µM (purified ovine COX-1): 93%
Structure (SMILES): C=CCC1(CC(=O)O)CCCc2c1[nH]c1c(F)ccc(C#N)c21 (centres unmarked) [Example 5, 1-Allyl-5-cyano-8-fluoro-2,3,4,9-tetrahydro-1H-carbazole-1-acetic acid]

IC50 (rhCOX-2): 0.32 µM
inhibition at 10 µM (purified ovine COX-1): 73%
Structure (SMILES): CCCC1(CC(=O)O)CCCc2c1[nH]c1c(F)ccc(C#N)c21 (centres unmarked) [Example 6, 5-Cyano-8-fluoro-1-propyl-2,3,4,9-tetrahydro-1H-carbazole-1-acetic acid]

inhibition at 0.3 µM (rhCOX-2; at 0.3 μM, read-out: % inh of rhCOX-2): 75%
inhibition at 30 µM (purified ovine COX-1): 99%
Structure (SMILES): C=CCC1(CC(=O)O)CCCc2c1[nH]c1c(C)ccc(C#N)c21 (centres unmarked) [Example 7, 1-Allyl-5-cyano-8-methyl-2,3,4,9-tetrahydro-1H-carbazole-1-acetic acid]

inhibition at 1 µM (rhCOX-2; read-out: % inh of rhCOX-2): 44%
inhibition at 270 µM (purified ovine COX-1): 99%
Structure (SMILES): CCCC1(CC(=O)O)CCCc2c1[nH]c1c(C)ccc(C#N)c21 (centres unmarked) [Example 8, 5-Cyano-1-propyl-8-methyl-2,3,4,9-tetrahydro-1H-carbazole-1-acetic acid]

inhibition at 0.1 µM (rhCOX-2; read-out: % inh of rhCOX-2): 21%
inhibition at 90 µM (purified ovine COX-1): -37%
Structure (SMILES): CCCC1(CC(=O)O)CCCc2c1[nH]c1c(C(N)=O)ccc(C#N)c21 (centres unmarked) [Example 9, 8-Carboxamido-5-cyano-1-propyl-2,3,4,9-tetrahydro-1H-carbazole-1-acetic acid]

inhibition at 0.1 µM (rhCOX-2; read-out: % inh of rhCOX-2): 18%
inhibition at 90 µM (purified ovine COX-1): 74%
Structure (SMILES): CCCC1(CC(=O)O)CCCc2c1[nH]c1cccc(C#N)c21 (centres unmarked) [Example 10, 5-Cyano-1-propyl-2,3,4,9-tetrahydro-1H-carbazole-1-acetic acid]

inhibition at 1 µM (rhCOX-2; read-out: % inh of rhCOX-2): 91%
inhibition at 270 µM (purified ovine COX-1): 86%
Structure (SMILES): C=CCC1(CC(=O)O)CCCc2c1[nH]c1c(C#N)ccc(C#N)c21 (centres unmarked) [Example 11, 1-Allyl-5,8-dicyano-2,3,4,9-tetrahydro-1H-carbazole-1-acetic acid]

inhibition at 1 µM (rhCOX-2; read-out: % inh of rhCOX-2): 78%
inhibition at 270 µM (purified ovine COX-1): 98%
Structure (SMILES): CCCC1(CC(=O)O)CCCc2c1[nH]c1c(C#N)ccc(C#N)c21 (centres unmarked) [Example 12, 5,8-Dicyano-1-propyl-2,3,4,9-tetrahydro-1H-carbazole-1-acetic acid]

inhibition at 0.1 µM (rhCOX-2; read-out: % inh of rhCOX-2): 31%
inhibition at 90 µM (purified ovine COX-1): 100%
Structure (SMILES): CCCC1(CC(=O)O)CCCc2c1[nH]c1cc(C#N)ccc21 (centres unmarked) [Example 13, 7-Cyano-1-propyl-2,3,4,9-tetrahydro-1H-carbazole-1-acetic acid]

Structure (SMILES): COc1ccc2c(c1)c(CC(=O)O)c(C)n2C(=O)c1ccc(Cl)cc1 [Indomethacin]
treatment of Alzheimer's disease [1]: useful in the treatment of Alzheimer's disease
selectivity for inhibition of COX-2 (COX-2): relatively non-selective inhibitor of COX-1 and COX-2

Structure (SMILES): CS(=O)(=O)Nc1ccc([N+](=O)[O-])cc1OC1CCCCC1 [N-(2-cyclohexyloxy-4-nitrophenyl)methanesulfonamide]
antiinflammatory effect [2]: effective antiinflammatory
gastric side effects [3]: lacks gastric side effects
selectivity for inhibition of COX-2 (COX-2): selective COX-2 inhibitor

Structure (SMILES): CCc1cccc2c3c([nH]c12)C(CC)(CC(=O)O)OCC3 (centres unmarked) [etodolac]
selectivity for inhibition of COX-2 (COX-2): tenfold
